Reference: patent publication US4965261A, “Substituted benzoxazinorifamycin derivative and antibacterial agent containing the same” (Kanegafuchi Kagaku Kogyo Kabushiki Kaisha, priority 1988, dated 1990)
In brackets after ≈: the same amount, converted by molar mass.

Legend:
[1] = system: Mycobacterium tuberculosis H37 Rv; experiment: Antibacterial activity against a tubercle bacillus, two-fold dilution in Kirchner liquid medium; settings: Table 3; Kirchner medium with 10% bovine serum, 37° C., 4 weeks
[2] = system: Mycobacterium tuberculosis H37 Rv; experiment: Therapeutic effect on mice experimentally infected with tuberculosis (FIG. 1, groups of 20 mice); settings: oral, 200 μg/mouse, once a day, six days a week
Text: In FIG. 1, the point, a, means the time that mice were infected, and the point, b, means the time that the treatment started.

[3] = system: Staphylococcus aureus IFO 12732; experiment: Antibacterial activity, standard method of Japan Society of Chemotherapy (Table 2); assay type: cell-based; settings: IFO12732, read-out: Minimal inhibitory concentration
Text: (§1) Derivative No. in Table 2 corresponds to derivative No. in Table 1.

[4] = system: Bacillus subtilis IFO 3134; experiment: as above; assay type: cell-based; settings: IFO3134, read-out: Minimal inhibitory concentration
Text: as §1

[5] = system: Escherichia coli IFO 12734; experiment: as above; assay type: cell-based; settings: IFO12734, read-out: Minimal inhibitory concentration
Text: as §1

[6] = system: Klebsiella pneumoniae IFO 3512; experiment: as above; assay type: cell-based; settings: IFO3512, read-out: Minimal inhibitory concentration
Text: as §1

[7] = system: Mycobacterium smegmatis ATCC 607; experiment: as above; assay type: cell-based; settings: Mycolicibacterium smegmatis, ATCC607, read-out: Minimal inhibitory concentration
Text: as §1

[8] = system: Micrococcus luteus IFO 12708; experiment: as above; assay type: cell-based; settings: IFO12708, read-out: Minimal inhibitory concentration
Text: as §1

With `CCOc1c(N2CCN(CC(C)C)CC2)ccc2nc3c4c5c6c(C)c(O)c4c(=O)c(c-3oc12)NC(=O)C(C)=CC=CC(C)C(O)C(C)C(O)C(C)C(OC(C)=O)C(C)C(OC)C=COC(C)(O6)C5=O` (centres unmarked) [Derivative No. 8] the Minimal inhibitory concentration [1] was 0.07 µg/mL (≈ 0.0722 µM), the “therapeutic effect as compared with rifampicin and derivative A” value [2] was “excellent therapeutic effect as compared with rifampicin” and the MIC [3] was no more than 0.02 µg/mL. It also gave an MIC [4] of no more than 0.02 µg/mL, an MIC [5] greater than 10 µg/mL and an MIC [6] greater than 10 µg/mL. For the same compound, the MIC [7] was 0.63 µg/mL (≈ 0.65 µM) and the MIC [8] was no more than 0.02 µg/mL.
